Assay results reported in patent publication US6911460B2, “Antiviral agents and methods of treating viral infections” (Vion Pharmaceuticals, Inc., priority 2001, dated 2005).
Values belong to the compound of their own block, whether it stands above or below them.

Columns and labels:
HSV-1 (KOS) = assay: Virus yield assay, Triapine plus acyclovir against HSV-1; type: cell-based, herpes simplex virus; conditions: for EC90: virus yield assay, 48 hr, combinations: ACV with fixed Triapine concentration
Protocol: (§1) To evaluate the antiviral activities of Triapine, acyclovir, and combination thereof, HeLa S3 cells are seeded in 25-cm^2 flasks and are used as host cells for virus infection (laboratory strains of virus HSV-1, HSV-2, wild type (Darby et al., (1982) Nature, 289, 81-3; Cheng, et al., Antimicrob. Agents Chemother. 18, 957-61, 1980). After a 1-hr adsorption period with virus at 5-10 plaque-forming units per cell, the monolayers are rinsed with phosphate-buffered saline, followed by the addition of 5 ml of growth medium containing various concentrations of drug. Concentrations of Triapine tested range from 0.1 to 1.0 micromolar where concentrations of acyclovir are from 1-50 micromolar. The cells are incubated at 37° C. for 48 hr and then are stored frozen at −70° C. until titration. The amounts of HSV contained in cells are determined with Vero cells using the methods described by Cheng et al. (Cheng, et al., Antimicrob. Agents Chemother. 18, 957-61, 1980).
(§2) The results of the above-test are presented in the following Table 1, below, which presents the antiviral activity of Triapine, at low, non-toxic clinically achievable concentrations of 0.3, 0.6 and 1.0 μM, in combination with acyclovir against HSV-1 (KOS) and HSV-2 (333) strains of herpes simplex virus in a virus yield assay. […] A greater than 4-fold decrease in the EC90 of ACV against HSV-2 is observed with 0.6 μM Triapine.

HSV-2 (333) = assay: Virus yield assay, Triapine plus acyclovir against HSV-2; type: cell-based, herpes simplex virus; conditions: for EC90: virus yield assay, 48 hr, combinations: ACV with fixed Triapine concentration
Protocol: as §1, §2

[1] = system: acyclovir-resistant HSV strains; conditions: in combination with acyclovir; cited from earlier work
strain IIIB of HIV = assay: Anti-HIV activity of Triapine combinations in HIV-infected MT-2 cells (MTT, isobolograms); type: cell-based, HIV-1; conditions: FIG. 4
Protocol: MT-2 cells infected with strain IIIB of HIV (wildtype, 3TC resistant, or AZT resistant) are used for determining antiviral activities (Bridges et al., Biochem. Pharmacol. Vol. 51, 731-36, 1996). Cells are infected with virus at a multiplicity of infection of 0.1 TCID50/ml and added to wells containing serial 2-fold dilutions of drugs. MT-2 cells in RPMI 1640 medium supplemented with 10% dialyzed fetal bovine serum and 100 μg/mL Kanamnycin are infected with virus and immediately added to serial dilutions of the drugs. After 5 days, 20 μL of MTT dye (2.5 mg/mL in PBS) is added per well. At the end of the 4-h incubation period, 150 μL of acidified 2-propanol with 2% NP-40 nonionic detergent is added per well. After the crystals of dye are dissolved (usually 1-2 days), the plates are read on a microplate reader. Using this MTT-dye reduction method (Larder et al., (1990), Antimicrob. Agents Chemother. 34, 436-41), the percentage of protection can be calculated from the formula [(a−b)/(c−b)×100] in which a is the A595 of drug-treated virus-infected wells, b is the A595 of no-drug infected cells, and c is the A595 of the no-drug uninfected cells. The EC50 was calculated from linear log 10 plots of the percentage protection verses inhibition concentration.
Using the above-described experimental system, the ability of Triapine to potentiate the anti-HIV activity of the dideoxynucleoside analogs ddI (2′,3′-dideoxyinosine), D4T (2′,3′-dideoxydidehydrothymidine) and AZT (3′-azidothymidine) was examined in HIV-infected MT-2 cells (as described above).

[2] = parameters: dose or concentration left out as unconfirmed; conditions: cancer patients, 96-hour infusion; cited from earlier work
[3] = Solubility in aqueous solution
HIV-infected cells = conditions: combined with 2′,3′-dideoxyinosine (DDI); cited from earlier work

decrease of the EC90 of ACV (HSV-1 (KOS); HSV-1, in the presence of 0.3 μM Triapine): 10 fold | decrease of the EC90 of ACV (HSV-1 (KOS); HSV-1, in the presence of 0.6 μM Triapine): greater than 24 fold | EC90 (HSV-1 (KOS); Human alphaherpesvirus 1): 29.3 µM | decrease in the EC90 of ACV (HSV-2 (333); HSV-2, with 0.6 μM Triapine): greater than 4 fold | EC90 (HSV-2 (333); Human alphaherpesvirus 2): 36.5 µM
Compound: Nc1nc2c(ncn2COCCO)c(=O)[nH]1 [ACV, acyclovir]

Compound: CC[C@@H](NC(=O)[C@@H](CC(=O)[C@@H](CC(=O)[C@@H](NC(=O)[C@H](C(C)C)N(C)C(=O)[C@H](C)CC1CCCCC1)C(C)(C)C)CC(=O)C(C)(C)C)C1(C(=O)O)CCCC1)C(C)(C)C [BILD1633 SE]
activity against acyclovir-resistant HSV strains [1]: had activity

Compound: NC(=S)NN=Cc1ncccc1N [Triapine, 3-aminopyridine-2-carboxyaldehyde thiosemicarbazone]
EC90 (HSV-1 (KOS)): > 1 µM | EC90 (HSV-2 (333)): > 1 µM | anti-HIV interaction (isobologram) (strain IIIB of HIV; combined with AZT): additive | anti-HIV interaction (isobologram) (strain IIIB of HIV; combined with D4T): synergistic | anti-HIV interaction (isobologram) (strain IIIB of HIV; combined with ddI): synergistic | concentration of Triapine reached [2]: 1000 nM | solubility in aqueous solution [3]: less than 0.1 mg/ml

Compound: NC(=O)NO [hydroxyurea]
effects against HIV-infected cells in combination (HIV-infected cells): synergistic effects
